Experimental data from patent publication US7767664B2, “Plant growth regulation” (Bayer CropScience AG, priority 2004, dated 2010).

Key:
[1] = tested on: wheat (Triticum aestivum, variety “TRISO”); test: Root growth assay, wheat seed treatment; format: in vivo; details: Root Growth of 100 is set as the standard, wet root weight 16 days post treatment
Source text: Plant roots are a highly proliferative tissue that allows an easy accessible, cheap and short term screening method for plant growth regulators. The results obtained can easily be transferred to the overall effects on a plant of plant growth regulators identified by such a system. By using this root assay one is enabled to determine the effect of a seed treatment to root growth and/or germination and/or changes in habitat of germinated plants in order to identify the possible use as a yield enhancer. Two seeds of wheat (Triticum aestivum, variety “TRISO”) or 1 seed of maize (Zea mays, variety “LORENZO”) per hole in a plastic tray which contains an architecture of 8×13 holes were placed on compost soil covered with sand. These seeds were treated with 100 μl/hole, which creates an application volume of approx. 1200 l/ha, of a compound solution at active ingredient rates equivalent to 100, 10 and 1 g a.i./ha of each compound using an robotic application system (Lizzy Spray Robotics). Six replicates in a row of each compound and concentration were done. The outer rim of the above defined plastic tray was untreated to avoid false negative effects and the middle row (No. 7) was used as untreated control. The treated seeds were allowed to dry for approx. 4 hours and subsequently covered with sand and watered. The trays were stored in climate chambers with 14 hours lighting at a temperature of 24° C. (±2) at daytime and 16° C. (±2) at night and relative humidity (rH) of 60% and daily watered. Assessments were done 16 (±2) days post treatment by counting the germinated plants and assessing the phytotoxicity symptoms and percentage. In addition, the roots were washed out and the shoots were cut directly above the seed and the wet roots were placed on dry paper towels for approximately 30 minutes and weighted afterwards. This procedure provides a similar grade of moisture to the roots so that a comparison of the weights is possible.
The effects observed concerning Root Growth given in column 2 (Root Growth of “100” is set as the standard) are directed to concentrations that are equivalent to 100, 10, 1 g a.i./ha, each.

[2] = tested on: maize (Zea mays, variety “LORENZO”); test: Root growth assay, maize seed treatment; format: in vivo; details: Root Growth of 100 is set as the standard, wet root weight 16 days post treatment
Source text: Plant roots are a highly proliferative tissue that allows an easy accessible, cheap and short term screening method for plant growth regulators. […] By using this root assay one is enabled to determine the effect of a seed treatment to root growth and/or germination and/or changes in habitat of germinated plants in order to identify the possible use as a yield enhancer. Two seeds of wheat (Triticum aestivum, variety “TRISO”) or 1 seed of maize (Zea mays, variety “LORENZO”) per hole in a plastic tray which contains an architecture of 8×13 holes were placed on compost soil covered with sand. […] Six replicates in a row of each compound and concentration were done. The outer rim of the above defined plastic tray was untreated to avoid false negative effects and the middle row (No. 7) was used as untreated control. The treated seeds were allowed to dry for approx. 4 hours and subsequently covered with sand and watered. The trays were stored in climate chambers with 14 hours lighting at a temperature of 24° C. (±2) at daytime and 16° C. (±2) at night and relative humidity (rH) of 60% and daily watered. Assessments were done 16 (±2) days post treatment by counting the germinated plants and assessing the phytotoxicity symptoms and percentage. In addition, the roots were washed out and the shoots were cut directly above the seed and the wet roots were placed on dry paper towels for approximately 30 minutes and weighted afterwards. This procedure provides a similar grade of moisture to the roots so that a comparison of the weights is possible.

## COc1cc2c(cc1OC)C(=O)CCC(=O)N2 [Compound 3.2, 7,8-Dimethoxy-1H-benzazepine-2,5 (3H, 4H)-dione]
[1]; 1 g a.i./ha
  Root Growth: 133
[1]; 10 g a.i./ha
  Root Growth: 131
[1]; 100 g a.i./ha
  Root Growth: 98
[2]; 1 g a.i./ha
  Root Growth: 96
[2]; 10 g a.i./ha
  Root Growth: 89
[2]; 100 g a.i./ha
  Root Growth: 123

## O=C1CCC(=NNc2cc(Cl)cc(Cl)c2)c2cc(Br)ccc2N1 [Compound 4.1]
[2]; 1 g a.i./ha
  Root Growth: 131
[2]; 10 g a.i./ha
  Root Growth: 102
[2]; 100 g a.i./ha
  Root Growth: 136

## O=C1CCC(=O)c2cc(Cl)ccc2N1 [Compound 3.4]
[1]; 1 g a.i./ha
  Root Growth: 125
[1]; 10 g a.i./ha
  Root Growth: 126
[1]; 100 g a.i./ha
  Root Growth: 195
[2]; 1 g a.i./ha
  Root Growth: 85
[2]; 10 g a.i./ha
  Root Growth: 121
[2]; 100 g a.i./ha
  Root Growth: 144

## O=C1CCC(=O)c2ccccc2N1 [Compound 3.1]
[1]; 1 g a.i./ha
  Root Growth: 98
[1]; 10 g a.i./ha
  Root Growth: 125
[1]; 100 g a.i./ha
  Root Growth: 135
[2]; 1 g a.i./ha
  Root Growth: 86
[2]; 10 g a.i./ha
  Root Growth: 150
[2]; 100 g a.i./ha
  Root Growth: 86

## CCNC(=S)NN=C1CCC(=O)Nc2cc(OC)c(OC)cc21 [Compound 4.5]
[1]; 1 g a.i./ha
  Root Growth: 149
[1]; 10 g a.i./ha
  Root Growth: 106
[1]; 100 g a.i./ha
  Root Growth: 79
